{"source": "patent US5766875A", "about": "“Metabolic monitoring of cells in a microplate reader” (priority 1995, dated 1998)", "key": {"TF-1 cells [1]": {"tested_on": "TF-1 cells", "assay": "Effect of cell-affecting agents on activation of TF-1 cells by GM-CSF, extracellular acidification rate (Example 9)", "assay_type": "cell-based", "details": "for inhibition at 10 µM: Homo sapiens", "procedure": "The cell effects of beta-Maleimido proprionic acid (NMPA), N-Ethyl maleimide (NEM), Ferricyanide (Fe3 CN)^-3 (i.e. FeCN) and Cupric o-phenanthroline (Cu o-Ph) on the activation of TF-1 cells by GM-CSF was measured by a procedure similar to that used in Example 5. TF-1 cells were starved overnight in media lacking GM-CSF. The cells were washed twice and re-suspended in simple indicator medium at 1×10^6 cells/ml. The simple indicator medium contained one of the following test substances: NMPA, MEM, FeCN or Cu o-Ph at the tested concentration. A control test, which had no cell-affecting agent, was run in parallel. The cells in the simple indicator medium with or without cell-affecting agents were warmed to 37° C. for 20 minutes prior to the addition of recombinant human GM-CSF (obtained from Sandoz/Schering-Plough Corp.) to a final concentration of 0.1 ng/ml, and the extracellular acidification rate was measured by monitoring OD560/OD420 at 37° C. for 45 minutes. Additionally, a set of cells were mock treated with an equal volume of simple indicator medium but without any GM-CSF as a control for GM-CSF activation. The acidification rates were calculated from the slope of log(OD560/OD420) from 20 to 40 minutes after addition of the GM-CSF.\nGenerally, 0.1 ng/ml of GM-CSF caused a 100-150% increase in extracellular acidification rate. The cell-affecting agents inhibited the response of extracellular acidification to GM-CSF. Thus, these cell-affecting agents are inhibitory cell-affecting agents, while GM-CSF is a stimulatory cell-affecting agent. The measurements were made in duplicate and results are shown below as % inhibition of the response to GM-CSF, relative to control cells which received GM-CSF only."}, "mammalian cells": {"tested_on": "mammalian cells", "details": "cited from earlier work"}, "[2]": {"assay": "Apparent pH change with temperature of buffering systems as indicated by phenol red", "assay_type": "physicochemical", "details": "phenol red pH indicator, 50 mM total buffer"}, "TF-1 cells [3]": {"tested_on": "TF-1 cells", "details": "TF-1 cells in culture; earlier work; cited from earlier work"}, "TF-1 cells [4]": {"tested_on": "TF-1 cells", "assay": "Extracellular acidification by TF-1 cells in response to GM-CSF (Example 5)", "assay_type": "cell-based", "procedure": "The results from using a preferred simple media (shown in Table 2) to monitor extracellular acidification by TF-I cells is shown in FIG. 13. The TF-1 cells and are grown in complete RPMI 1640 medium with 2.0 mM L-glutamine (Catalogue No. 430-1800, GIBCO-BRL, Grand Island, N.Y.) with added […], 50 μM β-mercaptoethanol, 1000 units/liter penicillin and 1.0 mg/liter streptomycin, 10% fetal bovine serum and Ing/ml GM-CSF (human Granulocyte/Macrophage--Colony Stimulating Factor) under 5% CO2 at 37° C.\nThe cells are maintained at between 5×10^5 cells per ml and 5×10^6 cells per ml. […]\nThe extracellular acidification measurements were done in a flat-bottom, 96-well polystyrene microplate placed in a THERMOmax™ microplate reader, set to 37° C. […] Extracellular acidification was measured with Automix™ on, and with SOFTMAX® software (Molecular Devices Corporation, Menlo Park, Calif.) and an Apple® Macintosh™ computer were used to kinetically monitor the optical density changes. The ratio of optical density at 560 nanometers/optical density at 420 nanometers, as a function of time, was measured by using the ODλ1 -ODλ2 feature of a THERMOmax™ microplate reader modified to measure ODλ1 /ODλ2 instead of ODλ1 -ODλ2 (as described previously). The log10 of the ratio of optical densities at 560 nanometers/optical density at 420 nanometers was calculated and plotted as a function of time. […]"}}, "note": "Where two headings read alike, the source gives them in different places."}
{"compound": "CCN1C(=O)C=CC1=O", "note": "[NEM, N-Ethyl maleimide]", "values": [{"measurement": "inhibition at 10 µM", "setting": "TF-1 cells [1]; TF-1, read-out: % Inhibition GM-CSF Response", "result": 98, "unit": "%"}]}
{"compound": "O=C(O)CCN1C(=O)C=CC1=O", "note": "[NMPA, beta-Maleimido proprionic acid]", "values": [{"measurement": "inhibitory effects on GM-CSF activation (in words)", "setting": "TF-1 cells [1]; 0.1 ng/ml GM-CSF, extracellular acidification", "result": "weak in comparison to NEM and Cu o-Ph"}, {"measurement": "inhibition at 10 µM", "setting": "TF-1 cells [1]; TF-1, 10 μM, 0.1 ng/ml GM-CSF, duplicate, read-out: % Inhibition GM-CSF Response", "result": 3, "unit": "%"}]}
{"compound": "O=S1(=O)OC(c2ccc(O)cc2)(c2ccc(O)cc2)c2ccccc21", "note": "[Phenol Red, phenolsulfonephthalein]", "values": [{"measurement": "toxicity toward most mammalian cells", "setting": "mammalian cells", "result": "minimal toxicity"}]}
{"compound": "NC(CO)(CO)CO", "note": "[TRIS, tris[Hydroxymethyl]aminomethane]", "values": [{"measurement": "apparent change in pH with change in temperature", "setting": "[2]; equilibrium with CO2 in air", "result": -14.93, "unit": "millipH/°C."}, {"measurement": "apparent change in pH with change in temperature", "setting": "[2]; with 1.0M NaCl added", "result": -13.36, "unit": "millipH/°C."}]}
{"compound": "Cupric o-phenanthroline [Cu o-Ph]", "values": [{"measurement": "% Inhibition GM-CSF Response", "setting": "TF-1 cells [1]; 25 μM, 0.1 ng/ml GM-CSF, duplicate", "result": 43, "unit": "%"}]}
{"compound": "GM-CSF: human Granulocyte/Macrophage--Colony Stimulating Factor", "values": [{"measurement": "concentration giving the optimum proliferation rate", "setting": "TF-1 cells [3]", "result": "approximately 1 ng/ml"}, {"measurement": "increase in extracellular acidification rate", "setting": "TF-1 cells [1]; 0.1 ng/ml GM-CSF, 37° C.", "result": "100-150%"}, {"measurement": "saturating levels (no observance of a dose response)", "setting": "TF-1 cells [4]", "result": "greater than 0.05 ng/ml"}]}
